Results from patent publication US8697739B2, “Bicyclic acetyl-CoA carboxylase inhibitors and uses thereof” (Novartis AG, priority 2010, dated 2014).

Target: T1, human acetyl-CoA carboxylase 2 (ACC2) (Homo sapiens, UniProt O00763)
T1 construct: The cDNA encoding amino acids 144 to 2458 of human acetyl-CoA carboxylase 2; made in house; host or cells: Sf9 insect cells (baculovirus, pFastBac1)
Assay: Acetyl-CoA carboxylase enzyme assay (malonyl-CoA formation by LC/MS/MS)
Format: biochemical
Settings: recombinant human ACC2 (aa 144-2458); read-out: IC50 ACC2
In short: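 Malonyl-CoA formation was read by LC/MS/MS MRM against a [13C3]-malonyl-CoA internal standard, after acetic acid quench. The enzyme was baculovirus/Sf9-expressed human ACC2 residues 144–2458, given 15 minutes room-temperature compound preincubation in HEPES pH 7.5 buffer with MgCl2, citrate and DTT. Substrate solution held 50 μM acetyl-CoA, 120 μM ATP and 2 mM KHCO3.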

T1 sequence (O00763 144-2458): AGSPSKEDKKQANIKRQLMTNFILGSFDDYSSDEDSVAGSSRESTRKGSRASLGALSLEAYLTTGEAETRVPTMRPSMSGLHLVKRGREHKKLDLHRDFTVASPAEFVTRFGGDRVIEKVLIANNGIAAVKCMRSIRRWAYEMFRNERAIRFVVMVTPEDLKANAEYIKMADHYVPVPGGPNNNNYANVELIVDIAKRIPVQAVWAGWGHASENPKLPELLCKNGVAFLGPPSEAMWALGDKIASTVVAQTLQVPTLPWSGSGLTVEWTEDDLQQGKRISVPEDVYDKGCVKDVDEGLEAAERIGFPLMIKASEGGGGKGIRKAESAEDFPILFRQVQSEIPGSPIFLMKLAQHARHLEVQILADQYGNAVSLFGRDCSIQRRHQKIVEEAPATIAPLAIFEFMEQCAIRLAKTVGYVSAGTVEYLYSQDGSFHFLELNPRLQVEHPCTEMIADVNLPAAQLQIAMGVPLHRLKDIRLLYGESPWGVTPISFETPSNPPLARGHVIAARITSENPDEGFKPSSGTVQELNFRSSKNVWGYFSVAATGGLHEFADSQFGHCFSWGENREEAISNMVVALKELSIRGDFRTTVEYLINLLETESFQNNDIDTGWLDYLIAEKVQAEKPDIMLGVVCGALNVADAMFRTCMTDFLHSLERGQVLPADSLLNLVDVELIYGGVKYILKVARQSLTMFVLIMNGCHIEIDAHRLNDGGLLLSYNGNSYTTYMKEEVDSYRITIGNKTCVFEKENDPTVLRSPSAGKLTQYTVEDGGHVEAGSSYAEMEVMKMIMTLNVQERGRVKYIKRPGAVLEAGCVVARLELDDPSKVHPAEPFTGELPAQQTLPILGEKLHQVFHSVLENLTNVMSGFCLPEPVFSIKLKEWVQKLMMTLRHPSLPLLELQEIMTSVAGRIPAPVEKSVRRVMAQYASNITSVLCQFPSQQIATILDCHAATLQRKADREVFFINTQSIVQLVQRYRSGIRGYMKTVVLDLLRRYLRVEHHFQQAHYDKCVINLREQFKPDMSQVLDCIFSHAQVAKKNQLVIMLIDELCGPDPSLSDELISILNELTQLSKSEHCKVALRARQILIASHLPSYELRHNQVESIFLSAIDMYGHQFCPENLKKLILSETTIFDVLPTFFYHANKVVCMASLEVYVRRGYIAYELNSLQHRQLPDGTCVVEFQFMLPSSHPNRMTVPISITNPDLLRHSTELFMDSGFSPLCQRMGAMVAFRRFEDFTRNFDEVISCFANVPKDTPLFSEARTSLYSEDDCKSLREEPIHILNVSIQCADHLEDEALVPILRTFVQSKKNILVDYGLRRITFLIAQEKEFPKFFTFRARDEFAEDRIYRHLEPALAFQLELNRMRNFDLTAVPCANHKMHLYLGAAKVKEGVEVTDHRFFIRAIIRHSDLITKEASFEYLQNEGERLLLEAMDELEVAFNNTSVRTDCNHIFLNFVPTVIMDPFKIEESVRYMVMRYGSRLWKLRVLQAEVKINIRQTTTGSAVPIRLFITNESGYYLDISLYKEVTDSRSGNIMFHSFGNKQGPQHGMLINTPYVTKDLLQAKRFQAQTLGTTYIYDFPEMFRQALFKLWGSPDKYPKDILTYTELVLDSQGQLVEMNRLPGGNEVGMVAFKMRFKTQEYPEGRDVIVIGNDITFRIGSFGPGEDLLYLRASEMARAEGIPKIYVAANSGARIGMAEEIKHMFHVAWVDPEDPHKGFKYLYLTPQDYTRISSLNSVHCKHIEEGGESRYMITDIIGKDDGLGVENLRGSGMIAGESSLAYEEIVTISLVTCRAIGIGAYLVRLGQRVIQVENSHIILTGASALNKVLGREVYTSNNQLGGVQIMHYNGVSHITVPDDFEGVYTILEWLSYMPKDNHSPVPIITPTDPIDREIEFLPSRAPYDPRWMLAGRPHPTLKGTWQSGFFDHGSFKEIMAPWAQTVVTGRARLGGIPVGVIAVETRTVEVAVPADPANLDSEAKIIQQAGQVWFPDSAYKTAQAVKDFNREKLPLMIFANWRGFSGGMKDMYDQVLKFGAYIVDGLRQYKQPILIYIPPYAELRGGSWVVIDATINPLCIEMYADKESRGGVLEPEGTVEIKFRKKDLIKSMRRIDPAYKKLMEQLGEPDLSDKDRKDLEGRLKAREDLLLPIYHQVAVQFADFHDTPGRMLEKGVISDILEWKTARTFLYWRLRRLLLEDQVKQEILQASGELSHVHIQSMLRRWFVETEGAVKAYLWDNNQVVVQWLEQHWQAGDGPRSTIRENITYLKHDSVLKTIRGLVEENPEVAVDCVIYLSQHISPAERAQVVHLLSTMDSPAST

Work on `Cn1c(-c2ccccc2)cc2cc(S(=O)(=O)N[C@H]3CC[C@H](C(=O)N[C@H](CC(=O)O)c4ccccc4)CC3)ccc21` [Example 95, (R)-3-((1r,4R)-4-(1-methyl-2-phenyl-1H-indole-5-sulfonamido)cyclohexanecarboxamido)-3-phenylpropanoic acid] yielded an IC50 of 0.03 µM.

`CC(C)(O)[C@@H](NC(=O)[C@H]1CC[C@H](NS(=O)(=O)c2ccc3ccccc3c2)CC1)c1ccccc1` [Example 96, (1r,4S)-N-((S)-2-hydroxy-2-methyl-1-phenylpropyl)-4-(naphthalene-2-sulfonamido)cyclohexanecarboxamide] was tested, and the IC50 was 0.01 µM.

In the case of `Cn1c(-c2ccccc2)cc2cc(S(=O)(=O)N[C@H]3CC[C@H](C(=O)N[C@@H](c4ccccc4)C(C)(C)C(=O)O)CC3)ccc21` [Example 97, (S)-2,2-dimethyl-3-((1r,4S)-4-(1-methyl-2-phenyl-1H-indole-5-sulfonamido)cyclohexanecarboxamido)-3-phenylpropanoic acid], the IC50 is reported as less than 0.01 µM.

`COC(=O)[C@H]1CC[C@H](NS(=O)(=O)c2ccc3nc(-c4ccccc4)[nH]c3c2)CC1` [Example 98, (1r,4r)-methyl 4-(2-phenyl-1H-benzo[d]imidazole-6-sulfonamido)cyclohexanecarboxylate] showed an IC50 of 4.3 µM.

`O=C(OCc1ccccc1)[C@H]1CC[C@H](NS(=O)(=O)c2ccc3nc(-c4ccccc4)[nH]c3c2)CC1` [Example 99, (1r,4r)-benzyl 4-(2-phenyl-1H-benzo[d]imidazole-6-sulfonamido)cyclohexanecarboxylate] was tested, and the IC50 was 0.494 µM.

`COc1ccc(-c2nc3ccc(S(=O)(=O)N[C@H]4CC[C@H](C(=O)OCc5ccccc5)CC4)cc3[nH]2)cc1` [Example 100, (1r,4r)-benzyl 4-(2-(4-methoxyphenyl)-1H-benzo[d]imidazole-6-sulfonamido)cyclohexanecarboxylate] showed an IC50 of 0.76 µM.

In the case of `COC(=O)c1ccc(COC(=O)[C@H]2CC[C@H](NS(=O)(=O)c3ccc4nc(-c5ccccc5)[nH]c4c3)CC2)cc1` [Example 101, methyl 4-(((1r,4r)-4-(2-phenyl-1H-benzo[d]imidazole-6-sulfonamido)cyclohexanecarbonyloxy)methyl)benzoate], the IC50 is reported as 1.79 µM.

`C[C@@H](NC(=O)[C@H]1CC[C@H](NS(=O)(=O)c2ccc3[nH]c(-c4ccccc4)cc3c2)CC1)c1ccc(F)cc1` [Example 102, (1r,4R)-N-((R)-1-(4-fluorophenyl)ethyl)-4-(2-phenyl-1H-indole-5-sulfonamido)cyclohexanecarboxamide] was tested, and the IC50 was 0.045 µM.

With `CC(C)(C)OC(=O)N1CCN(c2ccc(-c3nc4cc(S(=O)(=O)N[C@H]5CC[C@H](C(=O)N6CCOCC6)CC5)ccc4[nH]3)cc2)CC1` [Example 103, tert-butyl 4-(4-(5-(N-((1r,4r)-4-(morpholine-4-carbonyl)cyclohexyl)sulfamoyl)-1H-benzo[d]imidazol-2-yl)phenyl)piperazine-1-carboxylate] the IC50 was 0.038 µM.

`O=C([C@H]1CC[C@H](NS(=O)(=O)c2ccc3[nH]c(-c4ccc(N5CCNCC5)cc4)nc3c2)CC1)N1CCOCC1` [Example 104, N-((1r,4r)-4-(morpholine-4-carbonyl)cyclohexyl)-2-(4-(piperazin-1-yl)phenyl)-1H-benzo[d]imidazole-5-sulfonamide] gave an IC50 of 0.02 µM.

`C[C@@H](NC(=O)[C@H]1CC[C@H](NS(=O)(=O)c2cnc3ccccc3c2)CC1)c1ccc(F)cc1` [Example 105, (1r,4R)-N-((R)-1-(4-fluorophenyl)ethyl)-4-(quinoline-3-sulfonamido)cyclohexanecarboxamide] showed an IC50 of 0.252 µM.

`CC(=O)N1CCc2cc(S(=O)(=O)N[C@H]3CC[C@H](C(=O)N[C@H](C)c4ccc(F)cc4)CC3)ccc21` [Example 106, (1r,4R)-4-(1-acetylindoline-5-sulfonamido)-N-((R)-1-(4-fluorophenyl)ethyl)cyclohexanecarboxamide] showed an IC50 of 0.388 µM.

Compound `C[C@@H](NC(=O)[C@H]1CC[C@H](NS(=O)(=O)c2ccc3[nH]cnc3c2)CC1)c1ccc(F)cc1` [Example 107, (1r,4R)-4-(1H-benzo[d]imidazole-5-sulfonamido)-N-((R)-1-(4-fluorophenyl)ethyl)cyclohexanecarboxamide] has an IC50 of 0.205 µM.

For `C[C@@H](NC(=O)[C@H]1CC[C@H](NS(=O)(=O)c2ccc3[nH]c([C@@H]4CNCCN4)nc3c2)CC1)c1ccc(F)cc1` [Example 108, (1r,4R)-N-((R)-1-(4-fluorophenyl)ethyl)-4-(2-((S)-piperazin-2-yl)-1H-benzo[d]imidazole-5-sulfonamido)cyclohexanecarboxamide], the IC50 was 1.27 µM.

In the case of `C[C@@H](NC(=O)[C@H]1CC[C@H](NS(=O)(=O)c2ccc3c(c2)ncn3C)CC1)c1ccc(F)cc1` [Example 109, (1r,4R)-N-((R)-1-(4-fluorophenyl)ethyl)-4-(1-methyl-1H-benzo[d]imidazole-5-sulfonamido)cyclohexanecarboxamide], the IC50 is reported as 0.321 µM.

Work on `C[C@@H](NC(=O)[C@H]1CC[C@H](NS(=O)(=O)c2ccc3c(c2)CCC(=O)N3)CC1)c1ccc(F)cc1` [Example 110, (1r,4R)-N-((R)-1-(4-fluorophenyl)ethyl)-4-(2-oxo-1,2,3,4-tetrahydroquinoline-6-sulfonamido)cyclohexanecarboxamide] yielded an IC50 of 0.29 µM.

Compound `C[C@@H](NC(=O)[C@H]1CC[C@H](NS(=O)(=O)c2ccc3ncccc3c2)CC1)c1ccc(F)cc1` [Example 111, (1r,4R)-N-((R)-1-(4-fluorophenyl)ethyl)-4-(quinoline-6-sulfonamido)cyclohexanecarboxamide] has an IC50 of 0.139 µM.

In the case of `C[C@@H](NC(=O)[C@H]1CC[C@H](NS(=O)(=O)c2ccc3c(c2)NC(=O)CO3)CC1)c1ccc(F)cc1` [Example 112, (1r,4R)-N-((R)-1-(4-fluorophenyl)ethyl)-4-(3-oxo-3,4-dihydro-2H-benzo[b][1,4]oxazine-6-sulfonamido)cyclohexanecarboxamide], the IC50 is reported as 0.344 µM.

`C[C@@H](NC(=O)[C@H]1CC[C@H](NS(=O)(=O)c2ccc3ncsc3c2)CC1)c1ccc(F)cc1` [Example 113, (1r,4R)-4-(benzo[d]thiazole-6-surfonamido)-N-((R)-1-(4-fluorophenyl)ethyl)cyclohexanecarboxamide] showed an IC50 of 0.212 µM.

`C[C@@H](NC(=O)[C@H]1CC[C@H](NS(=O)(=O)c2ccc3[nH]c([C@@H]4CCCO4)nc3c2)CC1)c1ccc(F)cc1` [Example 114, (1r,4R)-N-((R)-1-(4-fluorophenyl)ethyl)-4-(2-((S)-tetrahydrofuran-2-yl)-1H-benzo[d]imidazole-5-sulfonamido)cyclohexanecarboxamide] showed an IC50 of 0.296 µM.

With `C[C@@H](NC(=O)[C@H]1CC[C@H](NC(=O)c2ccc3cc(-c4ccccc4)[nH]c3c2)CC1)c1ccc(F)cc1` [Example 115, N-((1R,4r)-4-((R)-1-(4-fluorophenyl)ethylcarbamoyl)cyclohexyl)-2-phenyl-1H-indole-6-carboxamide] the IC50 was 29.1 µM.

In the case of `CC(C)[Si](C(C)C)(C(C)C)n1cc(Cl)c2ccc(S(=O)(=O)N[C@H]3CC[C@H](C(=O)N[C@H](C)c4ccc(F)cc4)CC3)cc21` [Example 116, (1r,4R)-4-(3-chloro-1-(triisopropylsilyl)-1H-indole-6-sulfonamido)-N-((R)-1-(4-fluorophenyl)ethyl)cyclohexanecarboxamide], the IC50 is reported as 0.013 µM.

`C[C@@H](NC(=O)[C@H]1CC[C@H](NS(=O)(=O)c2ccc3[nH]c([C@H]4CCCO4)nc3c2)CC1)c1ccc(F)cc1` [Example 117, (1r,4R)-N-((R)-1-(4-fluorophenyl)ethyl)-4-(2-((R)-tetrahydrofuran-2-yl)-1H-benzo[d]imidazole-5-sulfonamido)cyclohexanecarboxamide] showed an IC50 of 0.574 µM.

`C[C@@H](NC(=O)[C@H]1CC[C@H](NS(=O)(=O)c2ccc3[nH]c([C@@H]4CC(F)(F)CN4)nc3c2)CC1)c1ccc(F)cc1` [Example 118, (1r,4R)-4-(2-((S)-4,4-difluoropyrrolidin-2-yl)-1H-benzo[d]imidazole-5-sulfonamido)-N-((R)-1-(4-fluorophenyl)ethyl)cyclohexanecarboxamide] gave an IC50 of 1.75 µM.

Work on `C[C@@H](NC(=O)[C@H]1CC[C@H](NS(=O)(=O)c2ccc3c(c2)CCC3)CC1)c1ccc(F)cc1` [Example 119, (1r,4R)-4-(2,3-dihydro-1H-indene-5-sulfonamido)-N-((R)-1-(4-fluorophenyl)ethyl)cyclohexanecarboxamide] yielded an IC50 of 0.161 µM.

With `C[C@@H](NC(=O)[C@H]1CC[C@H](NS(=O)(=O)c2ccc3nc(-c4ccccc4)sc3c2)CC1)c1ccc(F)cc1` [Example 120, (1r,4R)-N-((R)-1-(4-fluorophenyl)ethyl)-4-(2-phenylbenzo[d]thiazole-6-sulfonamido)cyclohexanecarboxamide] the IC50 was 0.034 µM.

`C[C@@H](NC(=O)[C@H]1CC[C@H](NS(=O)(=O)c2ccc3[nH]c(-c4ccccc4)nc3c2)CC1)C1CCCCC1` [Example 121, (1r,4R)-N-((R)-1-cyclohexylethyl)-4-(2-phenyl-1H-benzo[d]imidazole-5-sulfonamido)cyclohexanecarboxamide] was tested, and the IC50 was 0.017 µM.

In the case of `C[C@@H](NC(=O)[C@H]1CC[C@H](NS(=O)(=O)c2ccc3c(c2)OCCN3C)CC1)c1ccc(F)cc1` [Example 122, (1r,4R)-N-((R)-1-(4-fluorophenyl)ethyl)-4-(4-methyl-3,4-dihydro-2H-benzo[b][1,4]oxazine-7-sulfonamido)cyclohexanecarboxamide], the IC50 is reported as 0.016 µM.

`C[C@@H](NC(=O)[C@H]1CC[C@H](NS(=O)(=O)c2ccc3c(c2)OCCO3)CC1)c1ccc(F)cc1` [Example 123, (1r,4R)-4-(2,3-dihydrobenzo[b][1,4]dioxine-6-sulfonamido)-N-((R)-1-(4-fluorophenyl)ethyl)cyclohexanecarboxamide] showed an IC50 of 0.45 µM.

Work on `Cc1c(Cl)[nH]c2ccc(S(=O)(=O)N[C@H]3CC[C@H](C(=O)N[C@H](C)c4ccc(F)cc4)CC3)cc12` [Example 124, (1r,4R)-4-(2-chloro-3-methyl-1H-indole-5-sulfonamido)-N-((R)-1-(4-fluorophenyl)ethyl)cyclohexanecarboxamide] yielded an IC50 of 0.032 µM.
